According to ChEMBL document CHEMBL6134780, “Halogenated retinoid derivatives as dual RARα and RXRα modulators for treating acute promyelocytic leukemia cells” (Eur J Med Chem, 2024):
Activity calls are given as the source filed them. The calls are words filed in the database; no cut-off is given here.

Tests used:
NB-4 [1] = assay: Cell cycle arrest in human NB4 cells assessed as accumulation of cells at S phase at 2 uM incubated for 24 hrs by DAPI staining based flow cytometric analysis (reference value: 26 %); format: functional
NB-4 [2] = assay: Cell cycle arrest in human NB4 cells transfected with pLVX-shRNA2-negative control assessed as accumulation of cells at G0/G1 phase at 1 uM incubated for 12 hrs by DAPI staining based flow cytometric analysis (reference value: 46 %); format: functional
NB-4 [3] = assay: Cell cycle arrest in human NB4 cells assessed as accumulation of cells at G2/M phase at 2 uM incubated for 6 hrs by DAPI staining based flow cytometric analysis (reference value: 21 %); format: functional
NB-4 [4] = assay: Induction of apoptosis in human NB4 cells assessed as early apoptotic cells at 1 uM incubated for 24 hrs by Annexin V-FITC/PI staining based flow cytometric analysis (reference value: 4.37 %); format: functional
[5] = Cell cycle arrest in human ATRA-resistant NB4-LR2 cells assessed as accumulation of cells at sub-G1 phase at 0.5 uM incubated for 24 hrs by DAPI staining based flow cytometric analysis (reference value: 12 %); format: functional
[6] = Cell cycle arrest in human ATRA-resistant NB4-LR2 cells assessed as accumulation of cells at S phase at 1 uM incubated for 24 hrs by DAPI staining based flow cytometric analysis (reference value: 21 %); format: functional
NB-4 [7] = assay: Cell cycle arrest in human NB4 cells transfected with pLVX-shRNA2-negative control assessed as accumulation of cells at sub-G1 phase at 2 uM incubated for 12 hrs by DAPI staining based flow cytometric analysis (reference value: 4 %); format: functional
[8] = Induction of apoptosis in human ATRA-resistant NB4-LR2 cells assessed as viable cells at 1 uM incubated for 24 hrs by Annexin V-FITC/PI staining based flow cytometric analysis (reference value: 87.30 %); format: functional; settings: read-out: Activity
NB-4 [9] = assay: Cell cycle arrest in human NB4 cells assessed as increase in cyclin B1 expression at 2 uM incubated for 3 to 24 hrs by Western blot analysis; format: functional, cell-based; settings: time 3-24 hrs
NB-4 [10] = assay: Cell cycle arrest in human NB4 cells transfected with pLVX-shRXRalpha plasmid assessed as accumulation of cells at S phase at 1 uM incubated for 12 hrs by DAPI staining based flow cytometric analysis (reference value: 19 %); format: functional
NB-4 [11] = assay: Cell cycle arrest in human NB4 cells assessed as accumulation of cells at sub-G1 phase at 2 uM incubated for 24 hrs by DAPI staining based flow cytometric analysis (reference value: 3 %); format: functional
ATRA-resistant NB4-LR2 [12] = assay: Cell cycle arrest in human ATRA-resistant NB4-LR2 cells assessed as increase in cyclin B1 expression at 2 uM incubated for 3 to 24 hrs by Western blot analysis; format: functional, cell-based; settings: time 3-24 hrs
[13] = Induction of apoptosis in human ATRA-resistant NB4-LR2 cells assessed as necrotic cells at 1 uM incubated for 24 hrs by Annexin V-FITC/PI staining based flow cytometric analysis (reference value: 0.08 %); format: functional
NB-4 [14] = assay: Cell cycle arrest in human NB4 cells transfected with pLVX-shRNA2-negative control assessed as accumulation of cells at G0/G1 phase at 2 uM incubated for 12 hrs by DAPI staining based flow cytometric analysis (reference value: 46 %); format: functional
[15] = Cell cycle arrest in human ATRA-resistant NB4-LR2 cells assessed as accumulation of cells at G2/M phase at 2 uM incubated for 24 hrs by DAPI staining based flow cytometric analysis (reference value: 25 %); format: functional
[16] = target: T1, Retinoic acid receptor RXR-beta (Homo sapiens) (UniProt P28702); assay: Agonist activity at Gal4-fused full length RXRbeta LBD (unknown origin) transfected in HEK293T cells co-transfected with pG5luc reporter and Renilla-luc at 0.1 to 1 uM incubated for 12 hrs by luciferase reporter gene assay; format: cell-based; settings: dose 0.1-1 µM
T1 sequence (whole entry): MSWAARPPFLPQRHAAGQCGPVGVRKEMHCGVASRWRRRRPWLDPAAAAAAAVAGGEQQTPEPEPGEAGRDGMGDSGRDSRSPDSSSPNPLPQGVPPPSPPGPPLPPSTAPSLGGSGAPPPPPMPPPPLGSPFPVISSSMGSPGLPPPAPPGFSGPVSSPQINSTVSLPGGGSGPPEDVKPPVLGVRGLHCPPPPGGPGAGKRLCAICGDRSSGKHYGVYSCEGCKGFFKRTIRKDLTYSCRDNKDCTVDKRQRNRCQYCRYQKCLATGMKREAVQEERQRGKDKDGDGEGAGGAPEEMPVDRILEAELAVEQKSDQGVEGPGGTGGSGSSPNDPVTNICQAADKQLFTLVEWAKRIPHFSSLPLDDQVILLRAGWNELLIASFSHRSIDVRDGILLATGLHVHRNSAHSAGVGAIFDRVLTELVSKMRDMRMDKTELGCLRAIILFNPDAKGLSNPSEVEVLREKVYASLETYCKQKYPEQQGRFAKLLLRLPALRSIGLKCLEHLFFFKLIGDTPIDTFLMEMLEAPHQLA

NB-4 [17] = assay: Cell cycle arrest in human NB4 cells assessed as accumulation of cells at sub-G1 phase at 2 uM incubated for 6 hrs by DAPI staining based flow cytometric analysis (reference value: 3 %); format: functional
[18] = target: T2, Retinoic acid receptor alpha (Homo sapiens, UniProt P10276); assay: Agonist activity at Gal4-fused full length human RARalpha LBD transfected in HEK293T cells co-transfected with pG5luc reporter and Renilla-luc assessed as transactivation incubated for 12 hrs by dual luciferase reporter gene assay; format: cell-based
T2 sequence (P10276 whole entry): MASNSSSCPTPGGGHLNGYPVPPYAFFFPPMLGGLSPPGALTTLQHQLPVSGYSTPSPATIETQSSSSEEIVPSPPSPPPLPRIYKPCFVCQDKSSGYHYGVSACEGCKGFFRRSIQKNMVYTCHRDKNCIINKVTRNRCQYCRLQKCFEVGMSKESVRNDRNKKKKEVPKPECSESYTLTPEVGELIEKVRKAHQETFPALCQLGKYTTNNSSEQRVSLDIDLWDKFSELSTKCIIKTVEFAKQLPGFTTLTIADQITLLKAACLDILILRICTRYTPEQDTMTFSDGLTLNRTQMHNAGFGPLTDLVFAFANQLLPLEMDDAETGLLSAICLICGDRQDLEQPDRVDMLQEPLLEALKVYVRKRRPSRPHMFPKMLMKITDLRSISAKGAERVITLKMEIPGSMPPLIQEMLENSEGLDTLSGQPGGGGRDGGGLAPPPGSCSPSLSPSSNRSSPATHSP

[19] = Cell cycle arrest in human ATRA-resistant NB4-LR2 cells assessed as accumulation of cells at G2/M phase at 1 uM incubated for 12 hrs by DAPI staining based flow cytometric analysis (reference value: 28 %); format: functional
ATRA-resistant NB4-LR2 [20] = assay: Induction of DNA damage in human ATRA-resistant NB4-LR2 cells assessed as increase in gamma-H2AX expression at 2 uM by Western blot analysis; format: functional, cell-based
ATRA-resistant NB4-LR2 [21] = assay: Induction of apoptosis in human ATRA-resistant NB4-LR2 cells assessed as increase in cleaved-PARP expression at 2 uM incubated for 3 to 24 hrs by Western blot analysis; format: functional, cell-based; settings: time 3-24 hrs

| SMILES | Activity (NB-4 [4]) [%] | viability at 1 µM [8] [%] | Activity (NB-4 [9]) | Activity (ATRA-resistant NB4-LR2 [12]) | Activity [13] [%] | Activity [16] | EC50 [18] [nM] | Activity (ATRA-resistant NB4-LR2 [20]) | Activity (ATRA-resistant NB4-LR2 [21]) | further results |
| --- | --- | --- | --- | --- | --- | --- | --- | --- | --- | --- |
| Cc1cc2c(cc1C(=O)/C(Br)=C/c1ccc(C(=O)O)cc1)C(C)(C)CCC2(C)C | 23.14 | 56.2 | Active | Active | 1.44 | Weak_effect | 424 | Active; Dna Damage Detected When Apoptosis Occurred | Active | Activity (NB-4 [1]): 19%; Activity (NB-4 [2]): 30%; Activity (NB-4 [3]): 40%; Activity [5]: 18%; Activity [6]: 18%; Activity (NB-4 [7]): 7%; Activity (NB-4 [10]): 7%; Activity (NB-4 [11]): 9%; Activity (NB-4 [14]): 30%; Activity [15]: 23%; Activity (NB-4 [17]): 3%; Activity [19]: 52% |
| Cc1cc2c(cc1C(=O)/C(Br)=C\c1ccc(C(=O)O)cc1)C(C)(C)CCC2(C)C | 12.39 | 67.8 | Active | Active | 0.49 | Weak_effect | 419 | Active; Dna Damage Detected When Apoptosis Occurred | Active |  |
